Legend:
neonatal BMDCs = assay: BMDC in vitro stimulation with PRR agonists/adjuvants, 20-24 h: cytokines by ELISA, maturation markers by flow cytometry; type: cell-based, C57BL/6 mice
Experimental: Briefly, mice were sacrificed and legs removed; bones were surgically cleaned from surrounding tissue, extremities of tibiae and femurs were trimmed with sterile scissors and bone marrow flushed through a 70 μm nylon mesh strainer (Corning Life Sciences). Cell number and viability was determined by trypan blue exclusion. […] Plates were incubated in humidified atmosphere at 37° C., 5% CO2 for 6 days, with one supplement of 10 ml of complete culture medium and rmGM-CSF on day 3. On Day 6, non-adherent and loosely adherent cells were harvested by washing the plate gently with culture medium. Adherent cells were discarded. For flow cytometry analysis, BMDCs were stained (20 minutes at 4° C.) in PBS+FBS 2%+EDTA 2 mM, fixed with formaldehyde 4% (10 minutes at RT) and acquired on a BD LSRFortessa flow cytometer (BD Biosciences) or a Sony spectral analyzer SP6800 (Sony Biotechnology) and data were analyzed using FlowJo v.10 software (Tree Star). For a complete list of antibodies and fluorochromes used in the study see Table 2.
Rough (Salmonella Minnesota, R595) and smooth (Escherichia coli, O55:B5) lipopolysaccharide (LPS) were purchased from List Biological Laboratories. […] All PRR agonists employed in the studies were chosen based on and verified endotoxin free as indicated by the manufacturers. For stimulation experiments, immature BMDCs generated from newborn and adult mice were plated in round bottom 96-wells non-tissue culture-treated plates at the density of 10^5 cells/well in 200 μl of fresh complete culture medium with rmGM-CSF as described above, with the appropriate stimuli at the concentrations indicated in Table 3. Cells were incubated at 37° C. for 20-24 hours, then supernatant harvested and TNF, IL-6, IL-1β and IL-12p70 concentrations were measured by ELISA (R&D Systems). IFNβ was measured with a bioluminescent ELISA kit (LumiKine, Invivogen). Alternatively, BMDCs were stained and analyzed by flow cytometry as indicated above.

adult BMDCs = assay: BMDC in vitro stimulation with PRR agonists/adjuvants, 20-24 h: cytokines by ELISA; type: cell-based, C57BL/6 mice; conditions: increasing concentrations
Experimental: BMDCs were generated from newborn (5-7 days old) and adult (6-12 weeks old) C57BL/6 mice with an adaptation of previously described methods (Dowling et al., 2008, Lutz et al., 1999). Briefly, mice were sacrificed and legs removed; bones were surgically cleaned from surrounding tissue, extremities of tibiae and femurs were trimmed with sterile scissors and bone marrow flushed through a 70 μm nylon mesh strainer (Corning Life Sciences). Cell number and viability was determined by trypan blue exclusion. […] For flow cytometry analysis, BMDCs were stained (20 minutes at 4° C.) in PBS+FBS 2%+EDTA 2 mM, fixed with formaldehyde 4% (10 minutes at RT) and acquired on a BD LSRFortessa flow cytometer (BD Biosciences) or a Sony spectral analyzer SP6800 (Sony Biotechnology) and data were analyzed using FlowJo v.10 software (Tree Star). […]
Rough (Salmonella Minnesota, R595) and smooth (Escherichia coli, O55:B5) lipopolysaccharide (LPS) were purchased from List Biological Laboratories. […] Cells were incubated at 37° C. for 20-24 hours, then supernatant harvested and TNF, IL-6, IL-1β and IL-12p70 concentrations were measured by ELISA (R&D Systems). IFNβ was measured with a bioluminescent ELISA kit (LumiKine, Invivogen). Alternatively, BMDCs were stained and analyzed by flow cytometry as indicated above. […]

adult C57BL/6 mice = type: in vivo; conditions: prime-boost i.m., rHA + adjuvant, Day 35 post-prime
newborn C57BL/6 mice = type: in vivo; conditions: prime-boost DOL 7 and 14, Day 35 post-prime (DOL 42)
newborn mice = type: in vivo; conditions: single dose immunization, serum at DOL 35
[1] = Quantification of 2′3′-cGAMP adsorption onto alum by RP-HPLC; conditions: for % Adsorbed to Alum: 1:10 cGAMP:alum mass ratio, saline
Experimental: After vortexing for 10 seconds the sample was placed in a 37° C. incubator. Every 15 minutes the sample was vortexed for an additional 5 seconds and placed back into the incubator. […] Supernatant was immediately removed and placed into an autosampler vial undiluted for analysis by reverse-phase high performance liquid chromatography (RP-HPLC) to determine adsorption as a function of time. RP-HPLC samples were run on a Waters 2695 HPLC equipped with a 2996 photodiode array detector at a wavelength of 254 nm. A gradient was performed using a two mobile phase system of 0.1% trifluoroacetic acid in water and 0.1% trifluoroacetic acid in acetonitrile, on an Agilent Zorbax Eclipse Plus C18, 4.6×150 mm, 5 micron column at 25° C.

CCCCNc1nc(N)c2[nH]c(=O)n(Cc3ccc(C(=O)NCC(=O)O)cc3)c2n1 [CL264, reference compound]
IL-12p70 production by neonatal BMDCs (neonatal BMDCs; most effective non-toxic concentration, 20-24 h): failed to produce IL-12p′70

Nc1nc2c(ncn2[C@@H]2O[C@@H]3COP(=O)(O)O[C@H]4[C@@H](O)[C@H](n5cnc6c(N)ncnc65)O[C@@H]4COP(=O)(O)O[C@@H]2[C@@H]3O)c(=O)[nH]1 [cGAMP, cyclic guanosine monophosphate (GMP)-adenosine monophosphate (AMP)]
upregulation of surface maturation markers (CD40, CD80, CD86), neonatal vs adult BMDCs (neonatal BMDCs; 20-24 h stimulation): comparable
dependence of neonatal BMDC maturation marker expression on type I IFN signaling (neonatal BMDCs; cGAMP 25 μg/ml, blocking anti-TNF and anti-IFNAR antibodies): type I interferon-dependent manner
upregulation of surface maturation marker expression, cGAMP vs R848 (neonatal BMDCs; neonatal and adult BMDCs, different concentrations): more effective than R848
IFNβ production (neonatal BMDCs; newborn BMDCs, increasing concentrations): dose-dependent IFNβ production
IFNβ production (adult BMDCs): dose-dependent IFNβ production
median anti-rHA IgG1 titers (adult C57BL/6 mice): 0.77×10^6
median anti-rHA IgG2c titers (adult C57BL/6 mice): 0.82×10^6
median anti-rHA IgG titers (adult C57BL/6 mice): increased anti-rHA IgG titers
median anti-rHA IgG1 titers (newborn C57BL/6 mice): 24.51×10^3
median anti-rHA IgG2c titers (newborn C57BL/6 mice): 0.23×10^3
median anti-rHA IgG titers (newborn C57BL/6 mice): 20.57×10^3
median anti-rHA IgG1 titers (newborn mice): did not induce detectable
median anti-rHA IgG2c titers (newborn mice): did not induce detectable
median anti-rHA IgG titers (newborn mice): did not induce detectable
degradation products during incubation with alum ([1]; 37° C., over 24 hours): No significant degradation products
Peak Area of cGAMP in supernatant (RP-HPLC, 254 nm) ([1]; 15 min, 37° C.): 22.53 mAU
% Adsorbed to Alum ([1]; 15 min, 37° C.): 63%
Peak Area of cGAMP in supernatant (RP-HPLC, 254 nm) ([1]; 30 min, 37° C.): 22.93 mAU
% Adsorbed to Alum ([1]; 30 min, 37° C.): 62.34%
Peak Area of cGAMP in supernatant (RP-HPLC, 254 nm) ([1]; 1 hour, 37° C.): 22.22 mAU
% Adsorbed to Alum ([1]; 1 hour, 37° C.): 63.51%
Peak Area of cGAMP in supernatant (RP-HPLC, 254 nm) ([1]; 2 hours, 37° C.): 20.83 mAU
% Adsorbed to Alum ([1]; 2 hours, 37° C.): 65.79%
Peak Area of cGAMP in supernatant (RP-HPLC, 254 nm) ([1]; 4 hours, 37° C.): 21.02 mAU
% Adsorbed to Alum ([1]; 4 hours, 37° C.): 65.48%
Peak Area of cGAMP in supernatant (RP-HPLC, 254 nm) ([1]; 24 hours, 37° C.): 15.02 mAU
% Adsorbed to Alum ([1]; 24 hours, 37° C.): 75.33%
cGAMP adsorbed onto alum in vitro ([1]; summary statement in discussion, no time given): about 60%
